PubChem BioAssay (NCI)
Values joined by “and” are separate entries in the source; they are usually repeats but may differ in a detail not shown here. Identical values can stand only once.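 Interpolation was linear, between the two tested concentrations surrounding the appropriate level; five concentrations were tested over 48 hours in 96-well plates. GI50 is the concentration that inhibits growth by half. TGI: total growth inhibition.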

Key:
Assay in all cases: inhibition of tumour cell growth, NCI panel, 48 h
SNB-19 CNS = tested on: SNB-19 CNS
HCC-2998 colon = tested on: HCC-2998 colon
SF-539 CNS = tested on: SF-539 CNS
HS 578T breast = tested on: HS 578T breast
LOX IMVI melanoma = tested on: LOX IMVI melanoma
UO-31 renal = tested on: UO-31 renal
SF-295 CNS = tested on: SF-295 CNS
SW-620 colon = tested on: SW-620 colon
T-47D breast = tested on: T-47D breast
SR leukemia = tested on: SR leukemia

For `CC1=CC(C)=NN=C(N)N1S(=O)(=O)c1cc(C)c(Cl)cc1SCc1ccccc1`, the GI50 (SNB-19 CNS) was 30.3 µM, the TGI (SNB-19 CNS) was greater than 100 µM and the GI50 (HCC-2998 colon) was 11.9 µM. The TGI (HCC-2998 colon) was greater than 100 µM, the GI50 (SF-539 CNS) was greater than 100 µM and the TGI (SF-539 CNS) was greater than 100 µM. For the same molecule, the GI50 (HS 578T breast) was greater than 100 µM, the TGI (HS 578T breast) was greater than 100 µM and the GI50 (LOX IMVI melanoma) was 58.4 µM. The TGI (LOX IMVI melanoma) was greater than 100 µM, the GI50 (UO-31 renal) was 5.18 µM and the TGI (UO-31 renal) was greater than 100 µM. For the same molecule, the GI50 (SF-295 CNS) was 34.3 µM, the TGI (SF-295 CNS) was greater than 100 µM and the GI50 (SW-620 colon) was 24.8 µM. It also gave a TGI (SW-620 colon) greater than 100 µM, a GI50 (T-47D breast) of 4.21 µM and a TGI (T-47D breast) of 79.1 µM. The GI50 (SR leukemia) was 16.5 µM and the TGI (SR leukemia) was greater than 100 µM.
`CC1CCN(Cc2ccc(NC(=O)c3cc4ccc5cccnc5c4[nH]3)cc2)CC1` gave a GI50 (SNB-19 CNS) of 13.1 µM, a TGI (SNB-19 CNS) of 27.6 µM and a GI50 (HCC-2998 colon) of 2.55 µM. It also gave a TGI (HCC-2998 colon) of 5.8 µM, a GI50 (SF-539 CNS) of 1.94 µM and a TGI (SF-539 CNS) of 4.01 µM. It also gave a GI50 (HS 578T breast) of 4.09 µM, a TGI (HS 578T breast) of 28.3 µM and a GI50 (UO-31 renal) of 2.05 µM. The TGI (UO-31 renal) was 8.18 µM, the GI50 (SF-295 CNS) was 1.98 µM and the TGI (SF-295 CNS) was 4.45 µM. The GI50 (SW-620 colon) was 3.4 µM, the TGI (SW-620 colon) was 16.6 µM and the GI50 (T-47D breast) was 6.81 µM. For the same molecule, the TGI (T-47D breast) was 28.3 µM, the GI50 (SR leukemia) was 2.29 µM and the TGI (SR leukemia) was 6.65 µM.
For `CCN(CC)CCCC(C)Nc1ccnc2cc(Cl)ccc12` (stereo not drawn), the GI50 (SNB-19 CNS) was greater than 100 µM, the TGI (SNB-19 CNS) was greater than 100 µM and the TGI (HCC-2998 colon) was 48.8 µM. For the same molecule, the TGI (SF-539 CNS) was 35.7 µM and 32.5 µM, the GI50 (HS 578T breast) was greater than 100 µM and the TGI (HS 578T breast) was greater than 100 µM. For the same molecule, the GI50 (LOX IMVI melanoma) was 18.4 µM, the TGI (LOX IMVI melanoma) was 48.8 µM and 45 µM and the GI50 (UO-31 renal) was 84.8 µM. The TGI (UO-31 renal) was > 100 µM and 46.4 µM, the TGI (SF-295 CNS) was 59.9 µM and > 60.1 µM and the TGI (SW-620 colon) was greater than 100 µM. For the same molecule, the GI50 (T-47D breast) was greater than 100 µM, the TGI (T-47D breast) was > 100 µM and 64.1 µM and the TGI (SR leukemia) was 66.2 µM.
